Results from US4393228A, “Epoxysuccinic acid derivatives” (Taisho Pharmaceutical Co., Ltd., priority 1977, dated 1983).
Where two headings read alike, the source gives them in different places.

Assays:
papain = target: T1, papain (Carica papaya, UniProt P00784); experiment: Papain inhibitory activity (milk casein digestion); format: biochemical; settings: papain 80 μg/ml 0.5 ml, cysteine, pH 6.8, 1% milk casein, 40° C., 10 minutes
T1 construct: purchased Sigma Chem. Co
T1 sequence (P00784 134-345): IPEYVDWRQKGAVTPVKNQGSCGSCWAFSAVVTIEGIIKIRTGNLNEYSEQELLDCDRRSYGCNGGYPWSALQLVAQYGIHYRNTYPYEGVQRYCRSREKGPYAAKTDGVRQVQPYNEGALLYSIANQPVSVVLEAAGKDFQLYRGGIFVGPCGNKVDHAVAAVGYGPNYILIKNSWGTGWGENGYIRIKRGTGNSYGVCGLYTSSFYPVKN
Outline: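 Papain (80 μg/ml stock) preincubated 15 min at 40 °C with inhibitor, cysteine/EDTA activator and phosphate buffer pH 6.8. Then 1% milk casein digested 10 min at 40 °C, stopped with trichloroacetic acid and filtered; filtrate absorbance at 280 nm gives percent inhibition versus no-inhibitor control.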

[1] = test system: adjuvant induced polyarthritis; experiment: Inhibition of adjuvant induced polyarthritis in rats (hind paw volume); format: in vivo, Sprague Dawley rat; settings: Rattus norvegicus
Method: Effect of the compounds of this invention on the development of adjuvant-induced polyarthritis in rats was assayed as follows: Adjuvant arthritis was produced by a single intracutaneous injection of 0.1 ml of the adjuvant mixture containing heat-killed mycobacteria of the human Aoyama B strain suspended in liquid paraffin in 0.6% in the middle part of the distal tail of Sprague Dawley rat (female, 8 weeks old). […] The activity was measured as the mean inhibition percent for the increase of the hind paw volume of the 8 rats/group on the days 17 and 23 on which the legs become inflamed and reach maximum volumes. The compound Nos. in Table 2 are as defined in Examples as described hereinafter.

[2] = prior art compound; cited from earlier work
thiol proteases = settings: U.S. Pat. No. 3,911,111; cited from earlier work
[3] = U.S. Pat. No. 3,911,111; cited from earlier work
[4] = 408 h, 100 mg/kg of body weight, daily oral, day 17, read-out: Inhibition % 17 days (increase of hind paw volume)
[5] = 552 h, 100 mg/kg of body weight, daily oral, day 23, read-out: Inhibition % 23 days (increase of hind paw volume)
[6] = po, 408 h, read-out: Inhibition % 17 days (increase of hind paw volume)
[7] = po, 552 h, read-out: Inhibition % 23 days (increase of hind paw volume)

Row | SMILES | ID50 (amount of inhibitor for 50% inhibition) (papain) | inhibition in vivo at 100 mg/kg [1, 4] | inhibition in vivo at 100 mg/kg [1, 5] | acceleration of vascular permeability (side effect) [2] | thiol protease inhibitory activity (thiol proteases) | anti-inflammatory activity [3] | inhibition in vivo at 100 mg/kg [1, 6] | inhibition in vivo at 100 mg/kg [1, 7]
1 | O=C(OCc1cccs1)[C@@H]1O[C@H]1C(=O)OCc1cccs1 (relative stereo) [EP-79, di-2-thenyl epoxysuccinate] | 0.75 γ | 64.3% | 90.2% |  |  |  |  | 
2 | O=C(OCc1cccc2ccccc12)[C@@H]1O[C@H]1C(=O)OCc1cccc2ccccc12 (relative stereo) [EP-81, di-1'-naphthylmethyl epoxysuccinate] | 1.30 γ | 64.3% | 83.6% |  |  |  |  | 
3 | COc1ccc(COC(=O)[C@@H]2O[C@H]2C(=O)O)cc1 (relative stereo) [EP-102, p-methoxybenzyl potassium epoxysuccinate] | 0.36 γ | 28% | 31% |  |  |  |  | 
4 | O=C(O)[C@H]1O[C@@H]1C(=O)OCc1ccc(Cl)cc1 (relative stereo) [EP-116, p-chlorobenzyl potassium epoxysuccinate] | 0.32 γ | 35% | 33.5% |  |  |  |  | 
5 | O=C(OCc1cccc(F)c1)[C@H]1O[C@@H]1C(=O)OCc1cccc(F)c1 (relative stereo) [EP-121, di-m-fluorobenzyl epoxysuccinate] | 0.46 γ | 53.6% | 38.9% |  |  |  |  | 
6 | O=C(OCCCc1ccccc1)[C@H]1O[C@@H]1C(=O)OCCCc1ccccc1 (relative stereo) [EP-131, di-3'-phenylpropyl epoxysuccinate] | 11.36 γ | 57.1% | 49.2% |  |  |  |  | 
7 | CCOC(=O)[C@H]1O[C@@H]1C(=O)O (relative stereo) [EP-137, ethyl potassium epoxysuccinate] | 2.08 γ | 40% | 38.5% |  |  |  |  | 
8 | O=C(O)[C@H]1O[C@@H]1C(=O)OCc1ccccc1 (relative stereo) [EP-143, benzyl potassium epoxysuccinate] | 0.15 γ | 45.1% | 35.6% |  |  |  |  | 
9 | CCCCCOC(=O)[C@H]1O[C@@H]1C(=O)O (relative stereo) [EP-144, n-amyl potassium epoxysuccinate] | 0.34 γ | 33.3% | 32.1% |  |  |  |  | 
10 | CC(C)C[C@H](NC(=O)[C@H]1O[C@@H]1C(=O)O)C(=O)NCCCCN=C(N)N [E-64] |  |  |  | acceleration of vascular permeability | possessing thiol protease inhibitory activity | anti-inflammatory activity |  | 
11 | CC(C)C[C@H](NC(=O)C1OC1C(=O)[O-])C(=O)[O-].[K+].[K+] (stereo partly drawn) [EP-174, N-(3-carboxyoxirane-2-carbonyl)-L-leucine dipotassium salt] | 0.20 γ |  |  |  |  |  | 30.5% | 29%
12 | O=C([O-])C1OC1C(=O)N[C@@H](Cc1ccccc1)C(=O)[O-].[K+].[K+] (stereo partly drawn) [EP-175, N-(3-carboxyoxirane-2-carbonyl)-L-phenylalanine dipotassium salt] | 1.90 γ |  |  |  |  |  | 32% | 31.5%
